For 19 compounds, Ki results are on record in US9777001B2 (priority 2014, dated 2017).

One assay addresses human Factor XIa (Homo sapiens, UniProt P03951). In words: biochemical. As to conditions: purified human Factor XIa, substrate S-2366, HEPES buffer pH 7.4.
Another assay concerns the target human plasma kallikrein (Homo sapiens, UniProt P03952). Nature of the assay: biochemical. The conditions noted are these: purified human plasma kallikrein, substrate S-2302, sodium phosphate buffer pH 7.5.

Molecules are shown by their SMILES. Where a name gives a salt, the structure may show the parent alone.

human Factor XIa, sequence (P03951 388-625 limits assumed): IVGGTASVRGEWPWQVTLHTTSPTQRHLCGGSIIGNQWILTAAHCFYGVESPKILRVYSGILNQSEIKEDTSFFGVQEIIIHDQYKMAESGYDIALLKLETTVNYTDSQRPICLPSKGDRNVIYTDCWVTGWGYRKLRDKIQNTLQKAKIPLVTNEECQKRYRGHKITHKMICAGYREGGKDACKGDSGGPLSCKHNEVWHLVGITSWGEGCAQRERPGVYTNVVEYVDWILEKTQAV
human Factor XIa, sequence (P03951 19-387 partner limits assumed): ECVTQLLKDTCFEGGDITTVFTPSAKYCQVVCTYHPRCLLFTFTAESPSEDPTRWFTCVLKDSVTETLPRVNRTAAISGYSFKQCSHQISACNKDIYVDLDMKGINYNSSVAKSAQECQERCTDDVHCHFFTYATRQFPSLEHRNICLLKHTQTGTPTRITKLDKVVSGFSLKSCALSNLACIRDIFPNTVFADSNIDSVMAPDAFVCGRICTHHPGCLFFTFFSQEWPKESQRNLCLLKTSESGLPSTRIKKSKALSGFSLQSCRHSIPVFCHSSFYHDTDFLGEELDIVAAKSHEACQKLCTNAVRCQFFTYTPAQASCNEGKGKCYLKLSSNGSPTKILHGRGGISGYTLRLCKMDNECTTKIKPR
human plasma kallikrein, sequence (P03952 391-638 limits assumed): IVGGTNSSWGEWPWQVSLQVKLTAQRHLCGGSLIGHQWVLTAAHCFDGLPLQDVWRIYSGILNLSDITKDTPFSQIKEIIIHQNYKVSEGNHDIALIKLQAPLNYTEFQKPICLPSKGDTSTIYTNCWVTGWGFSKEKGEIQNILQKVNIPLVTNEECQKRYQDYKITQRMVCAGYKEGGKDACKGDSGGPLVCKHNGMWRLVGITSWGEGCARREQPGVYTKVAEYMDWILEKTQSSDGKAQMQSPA
human plasma kallikrein, sequence (P03952 20-390 partner limits assumed): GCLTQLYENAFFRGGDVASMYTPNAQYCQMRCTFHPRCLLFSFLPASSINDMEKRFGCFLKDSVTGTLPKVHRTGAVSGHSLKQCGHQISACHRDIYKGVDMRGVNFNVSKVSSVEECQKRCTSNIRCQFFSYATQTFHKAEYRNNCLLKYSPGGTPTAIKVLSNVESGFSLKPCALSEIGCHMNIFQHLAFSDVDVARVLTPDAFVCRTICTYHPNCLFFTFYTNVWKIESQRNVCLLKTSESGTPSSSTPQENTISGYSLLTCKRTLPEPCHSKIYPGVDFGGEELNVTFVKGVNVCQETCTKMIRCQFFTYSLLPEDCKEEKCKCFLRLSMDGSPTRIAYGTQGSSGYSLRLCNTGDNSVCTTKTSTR

As for `C[C@@H]1CCC[C@H](n2cnc(-c3cc(Cl)ccc3-n3cc(C(F)(F)F)nn3)cc2=O)c2cc(ccn2)-c2ccc(CO)cc2NC1=O` [Example 37, (10R,14S)-14-(4-{5-chloro-2-[4-(trifluoromethyl)-1H-1,2,3-triazol-1-yl]phenyl}-6-oxo-1,6-dihydropyrimidin-1-yl)-5-(hydroxymethyl)-10-methyl-8,16-diazatricyclo[13.3.1.0^2,7]nonadeca-1(19),2(7),3,5,15,17-hexaen-9-one trifluoroacetate], the Ki (in general, a dissociation constant, usually derived from enzyme kinetics or from competition with a known ligand) at human Factor XIa is 0.18 nM; at human plasma kallikrein it was 18 nM.

`C[C@@H]1CCC[C@H](n2cnc(-c3cc(Cl)ccc3-n3cc(Cl)nn3)cc2=O)c2cc(ccn2)-c2cc(S(C)(=O)=O)ccc2NC1=O` [Example 67, (10R,14S)-14-{4-[5-chloro-2-(4-chloro-1H-1,2,3-triazol-1-yl)phenyl]-6-oxo-1,6-dihydropyrimidin-1-yl}-4-methanesulfonyl-10-methyl-8,16-diazatricyclo [13.3.1.0^2,7]nonadeca-1(19),2(7),3,5,15,17-hexaen-9-one] yielded a Ki at human Factor XIa of 11 nM.

Turning to `COC(=O)c1ccc(Cl)cc1-c1cc(=O)n([C@H]2CCC[C@@H](C)C(=O)Nc3ccc(F)cc3-c3ccnc2c3)cn1` [Example 68, methyl 4-chloro-2-{1-[(10R,14S)-4-fluoro-10-methyl-9-oxo-8,16-diazatricyclo[13.3.1.0^2,7]nonadeca-1(19),2(7),3,5,15,17-hexaen-14-yl]-6-oxo-1,6-dihydropyrimidin-4-yl}benzoate], affinity at human Factor XIa was put at a Ki of 39 nM.

At human Factor XIa, `C[C@@H]1CCC[C@H](n2cnc(-c3cc(Cl)ccc3-n3cc(C#N)nn3)cc2=O)c2cc(ccn2)-c2ccc(C(F)F)cc2NC1=O` [Example 70, 1-(4-chloro-2-{1-[(10R,14S)-5-(difluoromethyl)-10-methyl-9-oxo-8,16-diazatricyclo[13.3.1.0^2,7]nonadeca-1(19),2(7),3,5,15,17-hexaen-14-yl]-6-oxo-1,6-dihydropyrimidin-4-yl}phenyl)-1H-1,2,3-triazole-4-carbonitrile] yielded a Ki of 0.26 nM.

Turning to `C[C@@H]1CCC[C@H](n2cnc(-c3cc(Cl)ccc3-n3cc(C(F)(F)F)nn3)cc2=O)c2cc(ccn2)-c2ccc(C(N)=O)cc2NC1=O` [Example 76, (10R,14S)-14-(4-{5-chloro-2-[4-(trifluoromethyl)-1H-1,2,3-triazol-1-yl]phenyl}-6-oxo-1,6-dihydropyrimidin-1-yl)-10-methyl-9-oxo-8,16-diazatricyclo [13.3.1.0^2,7]nonadeca-1(19),2(7),3,5,15,17-hexaene-5-carboxamide], the Ki at human Factor XIa worked out at 0.44 nM; at human plasma kallikrein it was 36 nM.

Compound `Cc1ccc2c(c1)NC(=O)[C@H](C)CCC[C@H](n1cnc(-c3cc(Cl)ccc3-n3cc(C(F)(F)F)nn3)cc1=O)c1cc-2ccn1` [Example 78, (10R,14S)-14-(4-{5-chloro-2-[4-(trifluoromethyl)-1H-1,2,3-triazol-1-yl]phenyl}-6-oxo-1,6-dihydropyrimidin-1-yl)-5,10-dimethyl-8,16-diazatricyclo [13.3.1.0^2,7]nonadeca-1(19),2(7),3,5,15,17-hexaen-9-one] returned a Ki at human Factor XIa of 0.42 nM.

On to `Cc1ccc(-n2cc(C(F)(F)F)nn2)c(-c2cc(=O)n([C@H]3CCC[C@@H](C)C(=O)Nc4ccccc4-c4ccnc3c4)cn2)c1` [Example 81, (10R,14S)-10-methyl-14-(4-{5-methyl-2[4-(trifluoromethyl)-1H-1,2,3-triazol-1-yl]phenyl}-6-oxo-1,6-dihydropyrimidin-1-yl)-8,16-diazatricyclo [13.3.1.0^2,7]nonadeca-1(19),2(7),3,5,15,17-hexaen-9-one], for which the Ki on human Factor XIa is 0.63 nM; on human plasma kallikrein it was 66 nM.

Consider `Cc1ccc(-n2cc(C(F)(F)F)nn2)c(-c2cc(=O)n([C@H]3CCC[C@@H](C)C(=O)Nc4cc(C#N)ccc4-c4ccnc3c4)cn2)c1` [Example 82, (10R,14S)-10-methyl-14-(4-{5-methyl-2-[4-(trifluoromethyl)-1H-1,2,3-triazol-1-yl]phenyl}-6-oxo-1,6-dihydropyrimidin-1-yl)-9-oxo-8,16-diazatricyclo [13.3.1.0^2,7]nonadeca-1(19),2(7),3,5,15,17-hexaene-5-carbonitrile], for which the Ki at human Factor XIa was 1.9 nM; at human plasma kallikrein, 176 nM.

The compound `C[C@@H]1CCC[C@H](n2cnc(-c3cc(Cl)ccc3-n3cc(Cl)nn3)cc2=O)c2cc(ccn2)-c2ccc(O)cc2NC1=O` [Example 85, (10R,14S)-14-{4-[5-chloro-2-(4-chloro-1H-1,2,3-triazol-1-yl)phenyl]-6-oxo-1,6-dihydropyrimidin-1-yl}-5-hydroxy-10-methyl-8,16-diazatricyclo[13.3.1.0^2,7]nonadeca-1(19),2(7),3,5,15,17-hexaen-9-one trifluoroacetate] registered a Ki on human Factor XIa of 0.1 nM.

As to `C[C@@H]1CCC[C@H](n2cnc(-c3cc(Cl)ccc3-n3cc(Cl)nn3)cc2=O)c2cc(ccn2)-c2ccc(C(F)(F)C(N)=O)cc2NC1=O` [Example 90, 2-[(10R,14S)-14-{4-[5-chloro-2-(4-chloro-1H-1,2,3-triazol-1-yl)phenyl]-6-oxo-1,6-dihydropyrimidin-1-yl}-10-methyl-9-oxo-8,16-diazatricyclo[13.3.1.0^2,7]nonadeca-1(19),2(7),3,5,15,17-hexaen-5-yl]-2,2-difluoroacetamide trifluoroacetate], at human Factor XIa, the Ki turned out to be 7.1 nM.

With `C[C@@H]1CCC[C@H](n2cnc(-c3cc(Cl)ccc3-n3cc(Cl)nn3)cc2=O)c2cc(ccn2)-c2ccc(OC(F)F)cc2NC1=O` [Example 93, (10R,14S)-14-{4-[5-chloro-2-(4-chloro-1H-1,2,3-triazol-1-yl)phenyl]-6-oxo-1,6-dihydropyrimidin-1-yl}-5-(difluoromethoxy)-10-methyl-8,16-diazatricyclo [13.3.1.0^2,7]nonadeca-1(19),2(7),3,5,15,17-hexaen-9-one trifluoroacetate], the Ki at human Factor XIa worked out at 100 nM; on human plasma kallikrein, 4000 nM.

Consider `C[C@@H]1CCC[C@H](n2cnc(-c3cc(Cl)ccc3-n3cc(C(F)(F)F)nn3)cc2=O)c2cc(ccn2)-c2c(Cl)cccc2NC1=O` [Example 105, (10R,14S)-3-chloro-14-(4-{5-chloro-2-[4-(trifluoromethyl)-1H-1,2,3triazol-1-yl]phenyl}-6-oxo-1,6-dihydropyrimidin-1-yl)-10-methyl-8,16-diazatricyclo[13.3.1.0^2,7]nonadeca-1(19),2(7),3,5,15,17-hexaen-9-one], for which the Ki on human Factor XIa is 0.41 nM.

For the compound `C[C@@H]1CCC[C@H](n2cnc(-c3cc(Cl)ccc3-c3csnn3)cc2=O)c2cc(ccn2)-c2cc(F)ccc2NC1=O` [Example 117, (10R,14S)-14-{4-[5-chloro-2-(1,2,3-thiadiazol-4-yl)phenyl]-6-oxo-1,6-dihydropyrimidin-1-yl}-4-fluoro-10-methyl-8,16-diazatricyclo[13.3.1.0^2,7]nonadeca-1(19),2(7),3,5,15,17-hexaen-9-one], affinity at human Factor XIa was put at a Ki of 2.7 nM.

At human Factor XIa, `C[C@@H]1CCC[C@H](n2cnc(-c3cc(Cl)cc4cnn(C)c34)cc2=O)c2cc(ccn2)-c2ccccc2NC1=O` [Example 119, (10R,14S)-14-[4-(5-chloro-1-methyl-1H-indazol-7-yl)-6-oxo-1,6-dihydropyrimidin-1-yl]-10-methyl-8,16-diazatricyclo[13.3.1.0^2,7]nonadeca-1(19),2(7),3,5,15,17-hexaen-9-one] had a Ki of 100 nM.

`C[C@@H]1CCC[C@H](n2cnc(-c3c(-n4cc(C(F)F)nn4)ccc(Cl)c3F)cc2=O)c2cc(ccn2)-c2cc(F)ccc2NC1=O` [Example 134, (10R,14S)-14-(4-{3-chloro-6-[4-(difluoromethyl)-1H-1,2,3-triazol-1-yl]-2-fluorophenyl}-6-oxo-1,6-dihydropyrimidin-1-yl)-4-fluoro-10-methyl-8,16-diazatricyclo [13.3.1.0^2,7]nonadeca-1(19),2(7),3,5,15,17-hexaen-9-one trifluoroacetate] displayed a Ki at human Factor XIa of 0.16 nM.

For the compound `C[C@@H]1CCC[C@H](n2cnc(-c3cc(Cl)ccc3-n3cc(Cl)nn3)cc2=O)c2cc(ccn2)-c2cc(F)ccc2NC1=O` [Example 140, (10R,14S)-14-{4-[5-chloro-2-(4-chloro-1H-1,2,3-triazol-1-yl)phenyl]-6-oxo-1,6-dihydropyrimidin-1-yl}-4-fluoro-10-methyl-8,16-diazatricyclo[13.3.1.0^2,7]nonadeca-1(19),2(7),3,5,15,17-hexaen-9-one trifluoroacetate], the Ki on human Factor XIa stood at 0.1 nM.

Consider `C[C@@H]1CCC[C@H](n2cnc(-c3c(C(F)(F)F)ccc(Cl)c3F)cc2=O)c2cc(ccn2)-c2cc(F)ccc2NC1=O` [Example 143, (10R,14S)-14-{4-[3-chloro-2-fluoro-6-(trifluoromethyl)phenyl]-6-oxo-1,6-dihydropyrimidin-1-yl}-4-fluoro-10-methyl-8,16-diazatricyclo[13.3.1.0^2,7]nonadeca-1(19),2(7),3,5,15,17-hexaen-9-one trifluoroacetate], for which the Ki at human Factor XIa was 17 nM.

The compound `C[C@@H]1CCC[C@H](n2cnc(-c3cc(Cl)ccc3-n3cc(C#N)nn3)cc2=O)c2cc(ccn2)-c2cc(F)ccc2NC1=O` [Example 148, 1-(4-chloro-2-{1-[(10R,14S)-4-fluoro-10-methyl-9-oxo-8,16-diazatricyclo [13.3.1.0^2,7]nonadeca-1(19),2(7),3,5,15,17-hexaen-14-yl]-6-oxo-1,6-dihydropyrimidin-4-yl}phenyl)-1H-1,2,3-triazole-4-carbonitrile trifluoroacetate] displayed an inhibition constant (Ki) on human Factor XIa of 0.1 nM.

`COc1ccc(Cl)cc1-c1cc(=O)n([C@H]2CCC[C@@H](C)C(=O)Nc3ccc(F)cc3-c3ccnc2c3)cn1` [Example 150, (10R,14S)-14[4-(5-chloro-2-methoxyphenyl)-6-oxo-1,6-dihydropyrimidin-1-yl]-4-fluoro-10-methyl-8,16-diazatricyclo[13.3.1.0^2,7]nonadeca-1(19),2(7),3,5,15,17-hexaen-9-one trifluoroacetate] gave a Ki at human Factor XIa of 310 nM.
